In the supplement of paper PMC10307832:

Experiments:
Experiment in all cases: relative viability (nuclei count vs DMSO), 5 days (fraction); higher = more cells survive
BX 795 + Bortezomib = compound: O=C(NCCCNc1nc(Nc2cccc(NC(=O)N3CCCC3)c2)ncc1I)c1cccs1 [BX 795] + CC(C)C[C@H](NC(=O)[C@H](Cc1ccccc1)NC(=O)c1cnccn1)B(O)O [Bortezomib] (partner 0.002 µM)
Method in brief: (§1)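 Lung cancer cell lines in 1536-well plates were dosed by pin tool the day after seeding, either with one drug alone or with a fixed anchor-drug dose plus five library-drug doses (not always all listed) in √10 steps. After 5 days, cells were fixed and their nuclei stained in one step (final 0.05% Triton X-100, 1% formaldehyde, 1 ug/ml Hoechst), then counted on 4× images. Relative viability is the nuclei count in treated wells divided by that in vehicle wells. Values are medians of duplicate plates.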

BX 795 + Luminespib = compound: O=C(NCCCNc1nc(Nc2cccc(NC(=O)N3CCCC3)c2)ncc1I)c1cccs1 [BX 795] + CCNC(=O)c1noc(-c2cc(C(C)C)c(O)cc2O)c1-c1ccc(CN2CCOCC2)cc1 [Luminespib] (partner 0.01 µM)
Method in brief: as §1

BX 795 + Alpelisib = compound: O=C(NCCCNc1nc(Nc2cccc(NC(=O)N3CCCC3)c2)ncc1I)c1cccs1 [BX 795] + Cc1nc(NC(=O)N2CCC[C@H]2C(N)=O)sc1-c1ccnc(C(C)(C)C(F)(F)F)c1 [Alpelisib] (partner 2 µM)
Method in brief: as §1

BX 795 + Phenformin = compound: O=C(NCCCNc1nc(Nc2cccc(NC(=O)N3CCCC3)c2)ncc1I)c1cccs1 [BX 795] + N=C(N)NC(=N)NCCc1ccccc1 [Phenformin] (partner 250 µM)
Method in brief: as §1

BX 795 + Vorinostat = compound: O=C(NCCCNc1nc(Nc2cccc(NC(=O)N3CCCC3)c2)ncc1I)c1cccs1 [BX 795] + O=C(CCCCCCC(=O)Nc1ccccc1)NO [Vorinostat] (partner 1 µM)
Method in brief: as §1

Cell Line	relative viability (BX 795 + Bortezomib; first compound 0.04 µM)	relative viability (BX 795 + Bortezomib; first compound 0.1265 µM)	relative viability (BX 795 + Bortezomib; first compound 0.4 µM)	relative viability (BX 795 + Bortezomib; first compound 1.265 µM)	relative viability (BX 795 + Luminespib; first compound 0.04 µM)	relative viability (BX 795 + Luminespib; first compound 0.1265 µM)	relative viability (BX 795 + Luminespib; first compound 0.4 µM)	relative viability (BX 795 + Luminespib; first compound 1.265 µM)	relative viability (BX 795 + Alpelisib; first compound 0.04 µM)	relative viability (BX 795 + Alpelisib; first compound 0.1265 µM)	relative viability (BX 795 + Alpelisib; first compound 0.4 µM)	relative viability (BX 795 + Alpelisib; first compound 1.265 µM)	relative viability (BX 795 + Phenformin; first compound 0.04 µM)	relative viability (BX 795 + Phenformin; first compound 0.1265 µM)	relative viability (BX 795 + Phenformin; first compound 0.4 µM)	relative viability (BX 795 + Phenformin; first compound 1.265 µM)	relative viability (BX 795 + Vorinostat; first compound 0.04 µM)	relative viability (BX 795 + Vorinostat; first compound 0.1265 µM)	relative viability (BX 795 + Vorinostat; first compound 0.4 µM)	relative viability (BX 795 + Vorinostat; first compound 1.265 µM)
NCI-H1355	1.23	1.22	1.31	1.22	0.721	0.787	0.874	0.579	0.833	0.808	0.914	0.781	0.491	0.455	0.465	0.357	0.649	0.63	0.696	0.487
HCC-827	1.01	1.01	1.06	0.986	0.746	0.657	0.823	0.644	1.02	0.975	1.02	0.924	0.448	0.372	0.414	0.387	0.756	0.689	0.901	0.79
LCLC-103H	1	1.1	1.15	0.911	0.941	0.84	1.06	0.737	0.944	1.1	1.05	1.01	0.301	0.327	0.355	0.298	0.675	0.811	0.699	0.695
NCI-H1915	1.07	1.01	0.974	0.953	0.688	0.891	0.71	0.624	1.11	1.08	1.14	0.928	0.388	0.389	0.38	0.301	0.534	0.51	0.525	0.49
NCI-H460	1.1	1.27	1.08	1.09	0.0385	0.0327	0.0422	0.0269	0.475	0.457	0.498	0.245	0.5	0.609	0.415	0.372	0.822	0.967	0.48	0.285
SW 1573	1.11	1.21	1.29	0.877	0.214	0.488	0.514	0.172	0.766	0.734	1.01	0.674	0.396	0.351	0.34	0.18	0.862	0.875	0.558	0.276
NCI-H23	1.05	1.31	0.987	1.26		0.207	0.216	0.211	0.659	0.737	0.743	0.526	0.803	0.825	0.794	0.782	0.583	0.651	0.376	0.285
BEN	0.805	0.783	0.842	0.873	0.458	0.432	0.351	0.312	1.06	1.16	1.06	0.995	0.235	0.278	0.245	0.21	0.591	0.559	0.582	0.526
COR-L 105	0.586	0.577	0.613	0.327	0.879	0.835	0.788	0.849	1.08	0.84	0.745	0.412	0.42	0.531	0.407	0.351	0.835	0.702	0.622	0.429
NCI-H2085	1.04	0.98	1.02	0.999	0.38	0.416	0.441	0.332	1.09	0.98	1.14	0.863	0.73	0.83	0.699	0.606	0.78	0.809	0.778	0.725
NCI-H2228	1.03	1.11	0.907	0.308	0.104	0.127	0.122	0.169	0.787	0.857	0.828	0.362	0.325	0.469	0.272	0.15	0.761	0.898	0.63	0.556
ChaGo-K-1	1.02	0.916	0.977	0.91	0.503	0.523	0.602	0.492					0.449	0.471	0.494	0.472	0.809	0.771	0.725	0.668
UMC-11	0.678	0.983	0.847	0.36	0.751	1.06	1.07	0.271	1.02	1.14	1.02	0.354	0.291	0.322	0.253	0.19	0.422	0.308	0.354	0.348
A-427	0.972	0.964	1.02	0.866	0.779	0.866	0.643	0.665	1.1	1.1	1.1	1.03	0.284	0.236	0.277	0.177	0.915	0.812	0.872	0.754
SK-LU-1	0.902	1.12		0.708	0.224	0.217		0.173	1.03	0.946	0.672	0.479	0.495	0.608		0.316	0.674	0.764	0.595	0.593
NCI-H1666	0.653	0.806	0.913	0.688	1	1.04	1.07	0.893	1.07	1.11	1.01	0.799	0.362	0.568	0.483	0.49	1.13	0.97	1.22	0.923
NCI-H2087	0.952	0.898	1.18	0.719	0.188	0.199	0.157	0.147	1.08	1.18	1.29	0.752	0.547	0.545	0.563	0.411	0.762	1.06	0.95	0.587
NCI-H358					0.471	0.325	0.635	0.218	0.95	0.642	0.822	0.281	0.296	0.319	0.257	0.117	0.716	0.661	0.434	0.138

Cell Line	relative viability (BX 795 + Bortezomib; first compound 0.04 µM)	relative viability (BX 795 + Bortezomib; first compound 0.1265 µM)	relative viability (BX 795 + Bortezomib; first compound 0.4 µM)	relative viability (BX 795 + Bortezomib; first compound 1.265 µM)	relative viability (BX 795 + Luminespib; first compound 0.04 µM)	relative viability (BX 795 + Luminespib; first compound 0.1265 µM)	relative viability (BX 795 + Luminespib; first compound 0.4 µM)	relative viability (BX 795 + Luminespib; first compound 1.265 µM)	relative viability (BX 795 + Alpelisib; first compound 0.04 µM)	relative viability (BX 795 + Alpelisib; first compound 0.1265 µM)	relative viability (BX 795 + Alpelisib; first compound 0.4 µM)	relative viability (BX 795 + Alpelisib; first compound 1.265 µM)	relative viability (BX 795 + Phenformin; first compound 0.04 µM)	relative viability (BX 795 + Phenformin; first compound 0.1265 µM)	relative viability (BX 795 + Phenformin; first compound 0.4 µM)	relative viability (BX 795 + Phenformin; first compound 1.265 µM)	relative viability (BX 795 + Vorinostat; first compound 0.04 µM)	relative viability (BX 795 + Vorinostat; first compound 0.1265 µM)	relative viability (BX 795 + Vorinostat; first compound 0.4 µM)	relative viability (BX 795 + Vorinostat; first compound 1.265 µM)
RERF-LC-KJ	1.09	1.23	1.14	1.02	1.41	1.27	1.29	0.753	0.73	0.938	0.818	0.742	0.473	0.424	0.452	0.282		0.667	0.59	0.541
IA-LM	0.655	0.841	0.974	0.54					0.844	0.636	0.614	0.666					0.79	1.06	0.992	0.892
LOU-NH91	0.528	0.498	0.562	0.507	0.372	0.3	0.303	0.307	0.695	0.666	0.621	0.741	0.861	0.713	0.658	0.697	0.846	0.955	0.842	0.903
NCI-H1975	0.332	0.414	0.392	0.249	0.228	0.427	0.139	0.183	0.6	0.671	0.626	0.406	0.409	0.442	0.422	0.317	0.761	0.713	0.656	0.399
NCI-H2342					0.793	0.588	0.79	0.743					0.643	0.515	0.538	0.544	0.754	0.734	0.651	0.726
NCI-H1793					0.153	0.137	0.168	0.182	0.675	0.775	0.647	0.613	0.358	0.35	0.366	0.289	0.888	0.753	0.803	0.293
NCI-H1563	0.822	0.844	0.993	0.752	0.593	0.472	0.47	0.447	0.964	0.859	0.917	0.811	0.679	0.641	0.744	0.567				
NCI-H1395					0.641	0.634	0.471	0.555	1.3	0.956	0.663	0.809	0.471	0.462	0.458	0.431	0.574	0.624	0.404	0.516
NCI-H1944					0.739	0.729	0.758	0.595	0.959	0.806	0.893	0.754	0.254	0.203	0.234	0.191	0.674	0.637	0.575	0.475
SK-MES-1					0.857	0.757	0.78	0.5	1.02	0.909	0.925	0.641	0.691	0.628	0.592	0.419	1.1	1.11	0.545	0.748
NCI-H522					1.41	1.23	1.02	1.01					0.645	0.643	0.681	0.668	0.9	0.864	0.875	0.72
HCC-366	1.08	1.1	0.866	1.09					0.462	0.432	0.291	0.113	0.622	0.629	0.602	0.583	0.311	0.295	0.224	0.0717
NCI-H2170					0.83	0.541	0.39	0.544	0.859	0.92	0.864	0.751	0.46	0.383	0.446	0.413	0.942	0.985	0.824	0.817
LK-2					0.186	0.174	0.175	0.189	1.1	1.07	0.952	1.03	0.501	0.485	0.503	0.444	0.398	0.37	0.286	0.239
SW 900					0.17	0.157	0.19	0.169					0.478	0.627	0.613	0.693	0.482		0.611	0.604
NCI-H1650	0.219	0.2	0.189	0.193	0.212	0.191	0.206	0.189					0.484	0.417	0.393	0.239	0.593	0.486	0.528	0.369
HCC-78	0.735	0.487	0.438	0.41					0.406	0.337	0.39	0.303	0.853	0.656	0.817	0.708	0.474	0.419	0.399	0.352
NCI-H1792	0.963	1.08	1.12	0.954	0.477	0.336	0.432	0.384	0.705	0.904	0.706	0.572	0.431	0.463	0.216	0.178				
